Legend:
CCL2 = CCL2 expression in LPS-stimulated human macrophages, RT-qPCR; format: cell-based; conditions: 16 hours pretreatment, then 10 ng/ml LPS 24 hours
Protocol: FIG. 10 is a bar graph. CDDO-Me, CDDO-Im, CDDO-2P-Im, and CDDO-3P-Im inhibit expression of CCL2 in human macrophages at picomolar concentrations.
Human peripheral blood monocytes were isolated using CD14 magnetic beads and differentiated with 20 ng/ml M-CSF for with 5 days and pretreated or not with 300 nM CDDO-Me; 500 pM CDDO-Im; 500 pM CDDO-2p-Im; 500 pM CDDO-3p-Im for 16 hours, followed by stimulation with 10 ng/ml LPS for an additional 24 hours. Total RNA was extracted and analyzed by RT-qPCR (Tagman) for cytokine expression.

NLRP3 = test: Mono-sodium urate (MSU)-induced peritonitis; format: in vivo, Mice; conditions: MSU crystals 1 mg/mouse i.p.; lavage four to sixteen hours later
Protocol: FIG. 7 is a bar graph. CDDO-Im, CDDO-2P-Im, and CDDO-3P-Im inhibit mono-sodium urate (MSU)-induced peritonitis. Peritoneal cavity IL-1β levels expressed as mean and SEM (n=6).
Mice received intraperitoneal (i.p.) injections of mono-sodium urate (MSU) crystals (1 mg/mouse) in the presence or absence of CDDO-Im, CDDO-2P-Im, or CDDO-3P-Im. Due to its particulate material, MSU crystals are potent activators of the NOD-like receptor NLRP3. Four to sixteen hours later a peritoneal lavage was conducted to collect supernatant from the peritoneal cavity.

Caspase 1 = Caspase 1 activation in LPS-primed BMDM, immunoblotting (caspase-p10); format: cell-based, mouse; conditions: different doses (30-1000 nM) 15 min before ATP (5 mM) 45 min
Protocol: FIG. 5 depicts a Western blot. CDDO-Im, CDDO-2P-Im, and CDDO-3P-Im inhibit Caspase 1 activation. LPS primed BMDM were treated with different doses of CDDO-Im, CDDO-2P-Im, or CDDO-3P-Im for 15 min before ATP (5 mM) was added for 45 min. Medium supernatant (SUP) and cell extracts (Lys) were analyzed by immunoblotting.
(§1) The effects of the pyridyl derivatives of CDDO-IM, (specifically, CDDO-2P-Im and CDDO-3P-Im) on NLRP3 inflammasome activation were tested in mouse BMDMs. Cells were first primed with LPS for 4 hours, then pretreated with specific doses of either CDDO-Im, CDDO-2P-IM or CDDO-3P-Im (30-1000 nM) for 15 min before ATP was added for another 45 min. CDDO-Im and its pyridyl derivatives inhibited the amount of caspase-p10 (an auto-processed fragment of caspase-1) released into cell culture supernatants in a dose-dependent manner as measured by Western blot (FIG. 5). […] The effect on caspase-1 activation is specific for the NLRP3 inflammasome as the AIM2 inflammasome activation by poly(dA:dT) was not inhibited by the synthetic CDDO-Im derivatives (data not shown).

NLRP3 inflammasome = NLRP3 inflammasome activation in LPS-primed BMDM, IL-1β ELISA; format: cell-based, mouse; conditions: for IL-1β production by NLRP3 inflammasome activation: LPS primed BMDM, different doses (30-1000 nM) 15 min before ATP (5 mM) 45 min, ELISA
Protocol: FIG. 4A depicts an experimental design and FIG. 4B is a bar graph. Ixazomib (IXZ) potentiation of NLRP3 inflammasome activation inhibited by CDDO-2P-Im. Bone marrow derived macrophages (BMDM) were treated with Ixazomib (IXZ) and LPS (100 ng/ml) for 20 hours. Primed-BMDM were treated with CDDO-2P-Im (100 nM) for 15 min, followed by stimulation of ATP (5 mM) for 45 min. Supernatant were analyzed by ELISA for IL-1β release.
FIG. 6 is a set of bar graphs. CDDO-Im, CDDO-2P-Im (right panel), and CDDO-3P-Im (left panel) inhibit IL-1β production by NLRP3 inflammasome activation. LPS primed-BMDM were treated with different doses of CDDO-Im, CDDO-2P-Im, or CDDO-3P-Im for 15 min before ATP (5 mM) was added for 45 min. Supernatant were analyzed by ELISA for IL-1β.
To explore the potential that CDDO-2P-IM may enhance the MM response to proteasome inhibitors via inhibition of inflammasome activity, the effect of CDDO-2P-IM on activation of the NLRP3 complex (as defined by IL-1β production), in the presence or absence of IXZ in primary mouse bone marrow derived macrophages (BMDM) was evaluated. In the experiment, BMDM were primed by lipopolysaccharide (LPS) in the presence or absence of IXZ for 4 hours, followed by a brief ([…]) exposure to CDDO-2P-IM after which inflammasome activation was triggered by ATP.
as §1

5T33MM cells = test: MM cell proliferation (confluence), IncuCyte imaging; format: cell-based, murine; conditions: 50 nM TTX01 or 7.5 nM IXZ alone, 72 hours
Protocol: (§2) FIG. 2 is a bar graph. CDDO-2P-Im inhibits proliferation of multiple myeloma cell line in vitro. 5T33MM, RPMI8226, and ARH77 cells were seeded in 96-well plates and incubated with CDDO-2P-Im (50 nM-150 nM). Confluence (cell proliferation) was measured using IncuCyte imaging after 72 hours. *p<0.01 compared to control.
(§3) FIG. 3 is a bar graph. […] Shown here are results for 5T33MM (50 nM TTX01/7.5 nM IXZ); RPMI8226 (100 nM TTX01/7.5 nM IXZ); and ARH77 (150 nM TTX01/10 nM IXZ). Confluence (cell proliferation) was measured using IncuCyte imaging after 72 hours.
(§4) To examine tumor-intrinsic effects of CDDO-2P-IM in the 5T33MM cell line and in human MM cells, conducted a series of in vitro studies was conducted. For these experiments, 96-well plates were first coated in poly-L-ornithine before cells were seeded (in triplicate), including the murine 5T33MM and the human RPMI8226, and ARH77 cell lines (15,000 cells per well). Cells were incubated in IncuCyte™ Live-Cell Analysis System for 72 hours (images were taken every 4 hours). To define dose-dependent effect of CDDO-2P-IM, cells were exposed to concentrations ranging from 50 nM to 150 nM. To examine potential synergy of CDDO-2P-IM with IXZ, MM cells were exposed to IXZ (7 nM-10 nM) either alone or in combination with CDDO-2P-IM.

ARH77 cells = test: as above; format: cell-based, human; conditions: 150 nM TTX01 or 10 nM IXZ alone, 72 hours
Protocol: as §2, §3, §4

RPMI8226 cells = test: as above; format: cell-based, human; conditions: 100 nM TTX01 or 7.5 nM IXZ alone, 72 hours
Protocol: as §2, §3, §4

CP70 = test: Ovarian cancer cell growth (confluence), IncuCyte ZOOM; format: cell-based, human; conditions: cisplatin dose used in the combination
From the text: (§5) FIG. 11 is a set of line graphs. Cisplatin resistant human ovarian cancer cell lines A2780, CP70, OV81, CP10, OVCAR-5 and OVCAR-8 were exposed to CDDO-2P-Im, cisplatin, or a combination of CDDO-2P-Im and cisplatin.
(§6) CDDO-2P-Im suppresses growth of cisplatin-resistant human ovarian cancer cells in vitro. Cisplatin resistant human ovarian cancer cell lines A2780, CP70, OV81, CP10, OVCAR-5 and OVCAR-8 cell were each cultured in a complete medium consisting of RPMI1640, 20% heat-inactivated FBS, 1% penicillin/streptomycin. Cells were cultured in a water jacketed CO2 incubator at 37° C. in a humidified atmosphere consisting of 5% CO2 and 95% air. Continuous live-cell analysis (CLCA) was used as a non-invasive cell monitoring and measurement method based on time-lapse, phase-contrast microscopy and fluorescence imaging, using IncuCyte® ZOOM. Cells were seeded in 96-well plates at densities of either 1×10^4 or 3×10^4 cell/cm^2 followed by addition of a drug dilution series for either CDDO-2P-Im or Cisplatin (P4394, Sigma) dissolved in PBS and diluted in media. […] Reduction in confluence is accompanied by the detachment and death of ovarian cancer cells.

OVCAR-5 = test: as above; format: cell-based, human; conditions: cisplatin dose used in the combination
From the text: as §5, §6

A2780 = test: as above; format: cell-based, human; conditions: cisplatin dose used in the combination
From the text: as §5, §6

OV81 = test: as above; format: cell-based, human; conditions: cisplatin dose used in the combination
From the text: as §5, §6

OVCAR-8 = test: as above; format: cell-based, human; conditions: cisplatin dose used in the combination
From the text: as §5, §6

CP10 = test: as above; format: cell-based, human; conditions: cisplatin dose used in the combination
From the text: as §5, §6

## COC(=O)[C@]12CCC(C)(C)C[C@H]1[C@H]1C(=O)C=C3[C@@]4(C)C=C(C#N)C(=O)C(C)(C)[C@@H]4CC[C@@]3(C)[C@]1(C)CC2 [CDDO-Me, reference compound]
CCL2; 300 nM
  expression of CCL2: inhibit

## CC1(C)CC[C@]2(C(=O)n3ccnc3)CC[C@]3(C)[C@H](C(=O)C=C4[C@@]5(C)C=C(C#N)C(=O)C(C)(C)[C@@H]5CC[C@]43C)[C@@H]2C1 [CDDO-Im, 1-(2-cyano-3,12-dioxooleana-1,9(11)-dien-28-oyl) imidazole, reference compound]
NLRP3
  MSU-induced peritonitis (peritoneal cavity IL-1β levels): inhibit
Caspase 1
  Caspase 1 activation (caspase-p10 released into supernatant): inhibit
NLRP3 inflammasome
  IL-1β production by NLRP3 inflammasome activation: inhibit
CCL2; 500 pM
  expression of CCL2: inhibit

## CC(C)C[C@H](NC(=O)CNC(=O)c1cc(Cl)ccc1Cl)B(O)O [IXZ, reference compound]
5T33MM cells
  proliferation (confluence), agent added alone: only partially effective
ARH77 cells
  proliferation (confluence), agent added alone: only partially effective
RPMI8226 cells
  proliferation (confluence), agent added alone: only partially effective
NLRP3 inflammasome; BMDM, IXZ and LPS (100 ng/ml), ATP (5 mM) 45 min
  IL-1β release (NLRP3 inflammasome activation), effect of IXZ during LPS priming: potentiation

## CC1(C)CC[C@]2(C(=O)n3cnc(-c4cccnc4)c3)CC[C@]3(C)[C@H](C(=O)C=C4[C@@]5(C)C=C(C#N)C(=O)C(C)(C)[C@@H]5CC[C@]43C)[C@@H]2C1 [CDDO-3P-Im, 1-[2-Cyano-3,12-dioxooleana-1,9(11)-dien-28-oyl]-4(-pyridin-3-yl)-1H-imidazole]
NLRP3
  MSU-induced peritonitis (peritoneal cavity IL-1β levels): inhibit
Caspase 1
  Caspase 1 activation (caspase-p10 released into supernatant): inhibit
NLRP3 inflammasome
  IL-1β production by NLRP3 inflammasome activation: inhibit
CCL2; 500 pM
  expression of CCL2: inhibit

## N.N.[Cl][Pt][Cl] [cisplatin, cis-diamminedichloroplatinum(II), reference compound]
CP70
  ovarian cancer cell kill, cisplatin alone: absolutely no effect
OVCAR-5
  ovarian cancer cell kill, cisplatin alone: absolutely no effect
A2780
  ovarian cancer cell kill, cisplatin alone: absolutely no effect
OV81
  ovarian cancer cell kill, cisplatin alone: absolutely no effect
OVCAR-8
  ovarian cancer cell kill, cisplatin alone: absolutely no effect
CP10
  ovarian cancer cell kill, cisplatin alone: absolutely no effect

From US12370202B2, “Methods and compositions for inhibiting the NLRP3 inflammasome and/or LON protease” (TRITERPENOID THERAPEUTICS, INC., priority 2019, dated 2025)
